# Assay results as given in patent US8603527B2, “Pharmaceutical formulations of a substituted diaminopurine” (Signal Pharmaceuticals, LLC, priority 2010, dated 2013).
# Where two headings read alike, the source gives them in different places.
# Experiment: Toxicokinetics in pregnant female rats
# Assay type: in vivo, rat
# Conditions: for concentration at 2 h / AUC / Cmax / Kp: female, rat; for concentration at 2 h / Kp: oral; for concentration at 2 h / Kp / Fetus concentration (pooled fetal blood samples): rats; for concentration at 2 h / Fetus concentration (pooled fetal blood samples): 2 hours after dosing on Gestation Day 17; for AUC / Cmax: pregnant rats; for Kp: fetal plasma / maternal plasma, Gestation Day 17, calculated from individual ratios, read-out: Fetal:Maternal Plasma Ratio
# Protocol: Compound I was readily absorbed in pregnant rats following daily oral administration of Compound I for 11 days (GD 6-16). Exposures for Compound I increased in an approximately dose-proportional manner from 25 to 100 mg/kg/day.
# [1] = CD [Crl:CD(SD)], plasma, 25 mg/kg/day, 25 mg/kg/d oral, Gestation Day 16
# [2] = CD [Crl:CD(SD)], plasma, 50 mg/kg/day, 50 mg/kg/d oral, Gestation Day 16
# [3] = CD [Crl:CD(SD)], plasma, 100 mg/kg/day, 100 mg/kg/d oral, Gestation Day 16
# [4] = Crl:CD(SD), plasma, 25 mg/kg/day, 25 mg/kg/d oral, Gestation Day 6
# [5] = Crl:CD(SD), plasma, 50 mg/kg/day, 50 mg/kg/d oral, Gestation Day 6
# [6] = Crl:CD(SD), plasma, 100 mg/kg/day, 100 mg/kg/d oral, Gestation Day 6
smiles,measurement,setting,value
"O[C@H]1CC[C@H](Nc2ncc3nc(Nc4c(F)cc(F)cc4F)n([C@H]4CCOC4)c3n2)CC1 [Compound I, 4-((9-((3S)-tetrahydro-3-furanyl)-8-((2,4,6-trifluorophenyl)amino)-9H-purin-2-yl)amino)-trans-cyclohexanol]",concentration at 2 h,"CD [Crl:CD(SD)], fetal blood (pooled), 25 mg/kg/day, 25 mg/kg/d, read-out: Fetus concentration (pooled fetal blood samples)",897 ng/mL
same,AUC,[1],19700 ng·h/mL
same,Cmax,[1],1930 ng/mL
same,AUC,[2],42300 ng·h/mL
same,Cmax,[2],4210 ng/mL
same,AUC,[3],96900 ng·h/mL
same,Cmax,[3],8130 ng/mL
same,concentration at 2 h,"CD [Crl:CD(SD)], plasma, 25 mg/kg/day, 25 mg/kg/d, read-out: Dam plasma concentration",1520 ng/mL
same,concentration at 2 h,"CD [Crl:CD(SD)], plasma, 50 mg/kg/day, 50 mg/kg/d, read-out: Dam plasma concentration",3410 ng/mL
same,concentration at 2 h,"CD [Crl:CD(SD)], plasma, 100 mg/kg/day, 100 mg/kg/d, read-out: Dam plasma concentration",6650 ng/mL
same,Kp,"Crl:CD(SD), 25 mg/kg/day, 25 mg/kg/d",0.59
same,Kp,"Crl:CD(SD), 50 mg/kg/day, 50 mg/kg/d",0.61
same,Kp,"Crl:CD(SD), 100 mg/kg/day, 100 mg/kg/d",0.61
same,AUC,[4],19500 ng·h/mL
same,Cmax,[4],2420 ng/mL
same,AUC,[5],49500 ng·h/mL
same,Cmax,[5],3920 ng/mL
same,AUC,[6],102000 ng·h/mL
same,Cmax,[6],6790 ng/mL
same,maternal AUC as fold of human AUC,rats at LOEL 25 mg/kg/day vs human 100 mg BID,~0.8 fold
same,maternal AUC as fold of human AUC,rats at LOEL 25 mg/kg/day vs human 200 mg BID,~0.4 fold
same,Fetus concentration (pooled fetal blood samples),50 mg/kg/d,2115 ng/mL
same,Fetus concentration (pooled fetal blood samples),100 mg/kg/d,4012 ng/mL
